Values quoted from earlier work as cited in patent US11718578B2, “Ketamine flow synthesis” (Université de Liège, priority 2017, dated 2023).

Target: glutamatergic N-methyl-D-aspartate (NMDA) receptor
Conditions: non-competitive NMDA receptor antagonist; according to Tyler et al.

In the case of `CN[C@]1(c2ccccc2Cl)CCCCC1=O` [1a, (S)-2-(2-chlorophenyl)-2-(methylamino)-cyclohexanone], the IC50 is given as 465 nM.
